Among the data in patent USRE48711E1, “Apoptosis signal-regulating kinase inhibitors” (Gilead Sciences, Inc., priority 2009, dated 2021) are IC50 values, retold here.

What is called IC50 is the concentration that gives 50% inhibition.

Chain of ASK1 (Apoptosis Signal-Regulating Kinase 1) (Q99683 649-946): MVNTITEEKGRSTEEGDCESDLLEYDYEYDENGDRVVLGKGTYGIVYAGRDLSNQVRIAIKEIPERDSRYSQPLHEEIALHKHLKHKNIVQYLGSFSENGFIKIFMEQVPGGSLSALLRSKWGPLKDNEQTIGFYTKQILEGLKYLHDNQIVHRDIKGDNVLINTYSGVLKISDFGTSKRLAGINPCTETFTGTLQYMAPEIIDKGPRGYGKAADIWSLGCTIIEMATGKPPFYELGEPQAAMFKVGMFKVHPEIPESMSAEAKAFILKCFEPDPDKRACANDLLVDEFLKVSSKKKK

This assay addresses ASK1 (Apoptosis Signal-Regulating Kinase 1) (Homo sapiens (Human), UniProt Q99683). In words: ASK1 (Apoptosis Signal-Regulating Kinase 1) TR-FRET Kinase Assay (Biochemical IC50). As to conditions: TR-FRET, biotin-MBP substrate, 20 min pre-incubation, ATP added as 300 μM solution.
The molecule `CC(C)c1ccc(-c2ccnc(C(=O)Nc3cccc(-c4nncn4C4CC4)c3)c2)cn1` [Example 102, N-(3-(4-cyclopropyl-4H-1,2,4-triazol-3-yl)phenyl)-6-isopropyl-3,4′-bipyridine-2′-carboxamide] showed an IC50 of 9 nM. For `C[C@H](O)[C@H](C)n1cnnc1-c1cccc(NC(=O)c2cc(-c3ccc(C4CC4)nc3)ccn2)n1` [Example 246, 6-cyclopropyl-N-(6-(4-((2S,3S)-3-hydroxybutan-2-yl)-4H-1,2,4-triazol-3-yl)pyridin-2-yl)-3,4′-bipyridine-2′-carboxamide] the value was 6 nM. The molecule `O=C(Nc1cccc(-c2nncn2C2CC2)n1)c1cc(N2CCCC(O)C2)ccn1` (centres unmarked) [Example 175, N-(6-(4-cyclopropyl-4H-1,2,4-triazol-3-yl)pyridin-2-yl)-4-(3-hydroxypiperidin-1-yl)picolinamide] registered an IC50 of 10 nM. For `O=C(Nc1cccc(-c2nncn2C2CC2)c1)c1cc(-c2cnc(C3CC3)nc2)ccn1` [Example 123, N-(3-(4-cyclopropyl-4H-1,2,4-triazol-3-yl)phenyl)-4-(2-cyclopropylpyrimidin-5-yl)picolinamide] the value was 10 nM; for `C[C@H](n1cnnc1-c1cccc(NC(=O)c2cc(-n3cnc(C4CC4)c3)ccn2)c1)C(F)(F)F` [Example 189, (S)-4-(4-cyclopropyl-1H-imidazol-1-yl)-N-(3-(4-(1,1,1-trifluoropropan-2-yl)-4H-1,2,4-triazol-3-yl)phenyl)picolinamide], 9 nM; for `O=C(Nc1cccc(-c2nncn2CC2(O)CC2)c1)c1cc(-c2cccnc2)ccn1` [Example 61, N-(3-(4-((1-hydroxycyclopropyl)methyl)-4H-1,2,4-triazol-3-yl)phenyl)-3,4′-bipyridine-2′-carboxamide], 174 nM. `Cc1cc(-c2ccnc(C(=O)Nc3cccc(-c4nncn4C4CC4)c3)c2)cnc1F` [Example 48, N-(3-(4-cyclopropyl-4H-1,2,4-triazol-3-yl)phenyl)-6-fluoro-5-methyl-3,4′-bipyridine-2′-carboxamide]: the midpoint of inhibition, the IC50, lay at 37 nM.

With `O=C(Nc1cccc(-c2nncn2C2CC2)n1)c1cc(-n2cnc(C3CC3)n2)ccn1` [Example 201, 4-(3-cyclopropyl-1H-1,2,4-triazol-1-yl)-N-(6-(4-cyclopropyl-4H-1,2,4-triazol-3-yl)pyridin-2-yl)picolinamide], the IC50 is 14 nM. The same measure for `O=C(Nc1cccc(-c2nncn2C2CC2)n1)c1cc(-c2cccnc2)ccn1` [Example 54, N-(6-(4-cyclopropyl-4H-1,2,4-triazol-3-yl)pyridin-2-yl)-3,4′-bipyridine-2′-carboxamide]: 5 nM. Regarding `Cc1ncccc1-c1ccnc(C(=O)Nc2cccc(-c3nncn3C3CC3)c2)c1` [Example 74, N-(3-(4-cyclopropyl-4H-1,2,4-triazol-3-yl)phenyl)-2-methyl-3,4′-bipyridine-2′-carboxamide], the IC50 stood at 79 nM. Against the preceding molecule, the IC50 is about 16-fold higher. For `CCc1cncc(-c2ccnc(C(=O)Nc3cccc(-c4nncn4C4CC4)c3)c2)c1` [Example 146, N-(3-(4-cyclopropyl-4H-1,2,4-triazol-3-yl)phenyl)-5-ethyl-3,4′-bipyridine-2′-carboxamide], the IC50 was determined as 8 nM. The same measure for `CC(C)(O)c1ccc(-c2ccnc(C(=O)Nc3cccc(-c4nncn4C4CC4)n3)c2)cn1` [Example 166, N-(6-(4-cyclopropyl-4H-1,2,4-triazol-3-yl)pyridin-2-yl)-6-(2-hydroxypropan-2-yl)-3,4′-bipyridine-2′-carboxamide]: 5 nM; for `COc1ccc(C(=O)Nc2cccc(-c3nncn3C3CC3)n2)cc1-n1cnc(C2CC2)c1` [Example 228, 3-(4-cyclopropyl-1H-imidazol-1-yl)-N-(6-(4-cyclopropyl-4H-1,2,4-triazol-3-yl)pyridin-2-yl)-4-methoxybenzamide]: 7 nM; for `CS(=O)(=O)N1CCN(c2ccnc(C(=O)Nc3cccc(-c4nncn4C4CC4)c3)c2)CC1` [Example 137, N-(3-(4-cyclopropyl-4H-1,2,4-triazol-3-yl)phenyl)-4-(4-(methylsulfonyl)piperazin-1-yl)picolinamide]: 31 nM.
